{"source": "patent US20040214897A1", "about": "“Uses for 2-amino-2-propane-1,3-diols” (priority 2001, published 2004)", "key": {"yeast cells": {"test_system": "yeast cells", "conditions": "cited from earlier work"}, "[1]": {"test_system": "peripheral blood lymphocytes (PBL)", "conditions": "background statement; cited from earlier work"}, "Bul1-disrupted yeast": {"test_system": "Bul1-disrupted yeast", "test": "Sensitivity of gene-disrupted yeast strains to FTY720", "type": "cell-based, Saccharomyces Cerevisie", "method": "(§1) The compound, e.g. FTY720, is dissolved in distilled water to be 10 mM, the resulting stock solution is kept at 4° C. and diluted to the appropriated concentrations with medium used for yeast culture. Standard laboratory yeast strain in this case derivatives of JK9-3d (a, alpha and diploid) are plated on to media containing the varying concentrations of the compound to be tested and their growth are compared to that in medium without the compound. Cultivation and maintenance of cells are carried out in YEPD medium (Difco) or synthetic medium (SD).\nOnly one genomic DNA fragment in pRS416 confers sensitivity to FTY720. This DNA contains 4 intact genes (NRC1, Bul1, RCE1, DSK2). […] Intact Bul1 gene in low-copy-number plasmid confers sensitvity to FTY720 in the resistant recessive mutants, implying that the mutation happens in Bul1 gene in the recessive mutant yeast."}, "[2]": {"test_system": "prototrophic derivatives of JK9-3dα", "test": "Growth sensitivity of prototrophic derivatives of JK9-3dα to FTY720", "type": "cell-based, Saccharomyces Cerevisie", "method": "as §1\nIf so, yeast that are able to synthesize amino acids might have a growth advantage in the presence of FTY720 compared with isogenic auxotrophic yeast that require amino acid import from the medium to grow. Therefore, the influence of nutrient auxotrophies present in JK9-3dα (trp1 his4 leu2 ura3), which are used to identify target molecules of FTY720, on the sensitivity to this compound is tested. In contrast to the parental auxotrophic strain, fully prototrophic TRP1 HIS4 LEU2 URA3 derivative of JK9-3dα is resistant to 30 μM of FTY720. […] It therefore seems that the molecular targets and pathways other than that of 30 μM are involved in the effects of 100 μM of FTY720. Then, in order to identify which nutrient transport is inhibited by 30 μM of FTY720, prototrophic strain for each nutrient are constructed in JK9-3dα."}, "[3]": {"test_system": "yeast strains JK9-3dα, MH272-1da and MH272-1da/α", "test": "Yeast growth on media containing the compound, compared with medium without compound", "type": "cell-based, Saccharomyces Cerevisie", "conditions": "for antifungal activity on Saccharomyces Cerevisie: general statement", "method": "as §1, with “(SD). The growth of both yeast strains JK9-3dα, MH272-1da and MH272-1da/α is inhibited by a compound of formula I, e.g. FTY720, at 30 μM in the YPED solid medium at 30° C. or in minimal medium at 19° C.” for “(SD).”"}, "JK9-3dα transformants": {"test_system": "JK9-3dα transformants", "test": "FTY720 resistance of JK9-3dα transformants carrying plasmid-borne genes", "type": "cell-based, Saccharomyces Cerevisie", "excerpt": "If the growth sensitivity of these yeast strains is due to inhibition of specific functional protein targets in the cells, such inhibition could be relieved by overexpressing such a function through introduction of multiple genetic copies of such function. Accordingly the FTY720 sensitive strain JK9-3dα has been transformed with yeast genomic DNA libraries cloned in high copy plasmid (2 μm) URA3 selectable using Yeast Transformation System (Clontech). FTY720-resistant transformants are selected on synthetic medium lacking uracil in the presence of 30 μM of FTY720. The total number of URA3+transformants is >20,000. The first selection Is performed at 19° C. because even the parent yeast strain JK9-3dα is resistant to FTY720 in synthetic medium at 30° C. After the first selection for resistance, FTY720-resistant growth phenotype of transformants is reconfirmed by restreaking individual colonies on to medium with the compound. Plasmid which conferred resistance to FTY720 are recovered according to standard methods, amplified in E. coli and reintroduced into JK9-3da for the confirmation of FTY720 resistance. The DNA fragments which conferred FTY720 resistance are isolated to determine sequence of both terminii of insert DNA and the DNA sequence is compared with Saccharomyces Genome Database. Then, the responsible single genes for the FTY720 resistance are further identified from the DNA fragments due to their common presence in different fragments and by using specific restriction enzymes to subclone them into yeast plasmid vector as shorter fragments (Genes Vap1, UBP5, UBP11 and Caj1 are identified by this method).\nFrom each fragment or resistance plasmid, single responsible genes, which overcome the anti-fungal effects of this compound at the increased copy number, are identified by subcloning using restriction enzymes. One is amino acid transporter VAP1, the others are a putative deubiquitinating enzyme UBP11 and UBP5. The last one is CAJ1 (heat shock protein).\nThe glutamine transporter GNP1 gene (38) is PCR amplified out of this fragment derived from the FTY720 resistant mutant or parent wild-type genomic DNA, then cloned into the same plasmid vector pRS416.\nJK9-3dα wild-type cells are transformed with the yeast genomic DNA library constructed from FTY720 resistant dominant mutant in the low-copy-number vector pRS416. FTY720-resistant transformants are selected in SD medium in the presence of 30 μM of FTY720 as mentioned above. Plasmid inserts are sequenced and gene is identified as GNP1."}, "Rsp5 mutant yeast": {"test_system": "Rsp5 mutant yeast", "test": "Sensitivity of Rsp5 mutant to FTY720", "type": "cell-based, Saccharomyces Cerevisie", "conditions": "30 μM", "method": "as §1\nIn order to clarify the role of the ubiquitin pathway in FTY720 action, the sensitivity of Rsp5 (Bul1 binding ubiquitin ligase) mutant to FTY720 is tested. Rsp5 mutant, in which Rsp5 expression level is reduced to less than 10% of wild-type due to the Ty1 transposed insertion in the promoter, is used in this study, since the complete disruption of Rsp5 gene is lethal. This Rsp5 mutant is resistant to 30 μM of FTY720 like Bul1 disrupted-yeast."}, "several yeast strains": {"test_system": "several yeast strains", "conditions": "background statement; cited from earlier work"}}, "data": [{"molecule": "CCCCCCCCCCCCCC[C@@H](O)[C@@H](O)[C@@H](N)CO", "note": "[PHS, phytoshingosine]", "values": [{"measurement": "tryptophan uptake", "setting": "yeast cells", "value": "diminishes tryptophan uptake"}]}, {"molecule": "CCCCCCCCc1ccc(CCC(N)(CO)CO)cc1", "note": "[FTY720, 2-Amino-2-[2-(4-octylphenyl)ethyl]propane-1,3-diol]", "values": [{"measurement": "peripheral blood lymphocytes (PBL) in vivo", "setting": "[1]", "value": "rapid and marked reduction"}, {"measurement": "sensitivity of Bul1-disrupted yeast after introduction of Bul1 gene in low-copy-number plasmid pRS416", "setting": "Bul1-disrupted yeast", "value": "reverses the phenotype from resistance to sensitivity"}, {"measurement": "sensitivity of Bul1-disrupted yeast", "setting": "Bul1-disrupted yeast; 30 μM", "value": "confers resistance"}, {"measurement": "sensitivity of fully prototrophic TRP1 HIS4 LEU2 URA3 derivative of JK9-3dα", "setting": "[2]; 30 μM", "value": "resistant"}, {"measurement": "sensitivity of single TRP1, HIS4, LEU2 or URA3 prototrophic strains", "setting": "[2]; 30 μM, JK9-3dα background", "value": "Neither of each TRP1, HIS4, LEU2 or URA3 prototrophic strain is resistant"}, {"measurement": "sensitivity of strain with both TRP1 and LEU2", "setting": "[2]; 30 μM, JK9-3dα background", "value": "sufficient to confer resistance"}, {"measurement": "sensitivity of prototrophic yeast", "setting": "[2]; 100 μM", "value": "still sensitive"}, {"measurement": "growth of yeast strains JK9-3dα, MH272-1da and MH272-1da/α", "setting": "[3]; 30 μM, YPED solid medium at 30° C. or minimal medium at 19° C.", "value": "inhibited"}, {"measurement": "antifungal activity on Saccharomyces Cerevisie", "setting": "[3]", "value": "exhibits an antifungal activity"}, {"measurement": "sensitivity of parent yeast strain JK9-3dα", "setting": "[3]; synthetic medium at 30° C.", "value": "resistant"}, {"measurement": "anti-fungal effect with wild type TAT2 gene in low-copy number-plasmid", "setting": "JK9-3dα transformants", "value": "overcomes the anti-fungal effects"}, {"measurement": "growth-inhibitory effect with VAP1, UBP11, UBP5 or CAJ1 in high-copy-number plasmid", "setting": "JK9-3dα transformants; 30 μM, JK9-3dα", "value": "overcome the growth-inhibitory effects"}, {"measurement": "anti-fungal effect with mutant-derived GNP1 in low-copy-number plasmid", "setting": "JK9-3dα transformants; 30 μM, JK9-3dα transformants, pRS416", "value": "confers resistance"}, {"measurement": "growth inhibition with multiple copies of VAP1", "setting": "JK9-3dα transformants; 100 μM", "value": "fail to overcome the growth inhibition"}, {"measurement": "anti-fungal effect with wild-type GNP1 gene in low-copy-number plasmid", "setting": "JK9-3dα transformants; JK9-3dα transformants, pRS416", "value": "not inhibited"}, {"measurement": "anti-fungal effect with VAP1 (and TAP2) in low-copy-number plasmid", "setting": "JK9-3dα transformants; genes from mutant-derived and wild-type genomic DNA libraries", "value": "confer FTY720 resistance"}, {"measurement": "sensitivity of Rsp5 mutant (Rsp5 expression less than 10% of wild-type)", "setting": "Rsp5 mutant yeast", "value": "resistant"}]}, {"molecule": "NC(CO)(CO)CCc1ccc(C(=O)CCCCc2ccccc2)cc1", "note": "[Compound Y, 2-amino-2-{2-[4-(1-oxo-5-phenylpentyl)phenyl]ethyl}propane-1,3-diol]", "values": [{"measurement": "peripheral blood lymphocytes (PBL) in vivo", "setting": "[1]", "value": "rapid and marked reduction"}, {"measurement": "antifungal activity on Saccharomyces Cerevisie", "setting": "[3]", "value": "exhibits an antifungal activity"}]}, {"molecule": "cyclosporin A [CsA]", "values": [{"measurement": "growth of several yeast strains", "setting": "several yeast strains", "value": "potently inhibit"}]}]}
